Source: PubChem BioAssay (NCI)
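1) Cells in 96-well plates. 2) Compound, 48 h, 5 concentrations. 3) Linear interpolation between surrounding doses. 4) Unreached endpoint = highest concentration. At the TGI there is no net growth.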

Experiments:
Experiment in all cases: growth of human tumour cells (NCI), 48 h
SR leukemia = tested on: SR leukemia
COLO 205 colon = tested on: COLO 205 colon
DU-145 prostate = tested on: DU-145 prostate
SK-OV-3 ovarian = tested on: SK-OV-3 ovarian
NCI-H460 lung = tested on: NCI-H460 lung
MALME-3M melanoma = tested on: MALME-3M melanoma
RPMI-8226 leukemia = tested on: RPMI-8226 leukemia
SF-295 CNS = tested on: SF-295 CNS
ACHN renal = tested on: ACHN renal
HCC-2998 colon = tested on: HCC-2998 colon
OVCAR-5 ovarian = tested on: OVCAR-5 ovarian
T-47D breast = tested on: T-47D breast
HOP-62 NSCLC = tested on: HOP-62 NSCLC
UACC-257 melanoma = tested on: UACC-257 melanoma
SK-MEL-28 melanoma = tested on: SK-MEL-28 melanoma
SNB-75 CNS = tested on: SNB-75 CNS
SW-620 colon = tested on: SW-620 colon
A549 NSCLC = tested on: A549 NSCLC
RXF 393 renal = tested on: RXF 393 renal
BT-549 breast = tested on: BT-549 breast

Compound | TGI (SR leukemia) [µM] | TGI (COLO 205 colon) [µM] | TGI (DU-145 prostate) [µM] | TGI (SK-OV-3 ovarian) [µM] | TGI (NCI-H460 lung) [µM] | TGI (MALME-3M melanoma) [µM] | TGI (RPMI-8226 leukemia) [µM] | TGI (SF-295 CNS) [µM] | TGI (ACHN renal) [µM] | TGI (HCC-2998 colon) [µM] | TGI (OVCAR-5 ovarian) [µM] | TGI (T-47D breast) [µM] | TGI (HOP-62 NSCLC) [µM] | TGI (UACC-257 melanoma) [µM] | TGI (SK-MEL-28 melanoma) [µM] | TGI (SNB-75 CNS) [µM] | TGI (SW-620 colon) [µM] | TGI (A549 NSCLC) [µM] | TGI (RXF 393 renal) [µM] | TGI (BT-549 breast) [µM]
CC(=O)OCC1OC(O[C@@H]2C[C@H]3C(C)(C)[C@H](OC(C)=O)CC[C@]3(C)[C@H]3CC[C@]4(C)C(=CC[C@H]4[C@@H](C)C[C@@H](O)[C@H](O)C(C)(C)O)[C@@]32C)C(O)C(O)C1O (stereo partly specified) | 31.8 | 27.7 | 32.1 | 32.5 | 31.2 | 31.9 | 30.2 | 33 | 30.4 | 35.1 | 27.1 | 32 | 29.3 | 35.1 | 29.8 | 36.5 | 32.8 | – | – | –
O=C1NC(=O)[C@@H](OCC2CCCCC2)[C@@H]2OCC3OC(C(O)C3O)C12 (stereo partly specified) | > 100 | > 100 | > 100 | > 100 | > 100 | > 100 | – | > 100 | > 100 | > 100 | > 100 | > 100 | > 100 | > 100 | > 100 | – | > 100 | > 100 | > 100 | –
Cc1nc2nn(Cc3ccccc3)cc2c(=O)o1 | – | > 100 | – | – | > 100 | > 100 | > 100 | > 100 | > 100 | > 100 | > 100 | – | > 100 | > 100 | – | > 100 | > 100 | > 100 | > 100 | –
c1ccc(CCCC2Sc3cccc4cccc(c34)S2)cc1 | – | > 100 | – | > 100 | > 100 | > 100 | > 100 | > 100 | > 100 | > 100 | > 100 | – | > 100 | – | > 100 | > 100 | > 100 | > 100 | > 100 | –
Nc1ccc2ncc(Nc3ccc(F)cc3)nc2c1 | > 100 | > 100 | – | – | > 100 | > 100 | > 100 | > 100 | > 100 | > 100 | > 100 | – | > 100 | > 100 | > 100 | > 100 | > 100 | > 100 | – | –
CN/C=C(/c1ccc(OC)cc1)C(O)c1ccc(OC)c(OC)c1 (stereo unspecified) | > 100 | > 100 | – | > 100 | > 100 | > 100 | > 100 | > 100 | > 100 | > 100 | > 100 | – | > 100 | > 100 | > 100 | > 100 | > 100 | > 100 | > 100 | –
O=C(CSc1nnc(Cc2ccccc2)o1)Nc1ccccc1Cl | – | > 100 | – | > 100 | > 100 | > 100 | > 100 | > 100 | > 100 | > 100 | > 100 | – | > 100 | – | > 100 | – | > 100 | > 100 | – | –
CCc1cccc(CC)c1Nc1nc2c(s1)C(=O)c1ccccc1C2=O | 89.5 | 49.6 | 45.3 | 89.8 | 34.9 | 31.5 | > 100 | 27.8 | 32 | 35.6 | 39.7 | > 100 | 30.2 | 37.8 | 35.9 | 25.4 | 74.6 | > 100 | 40.3 | –
CC(NC1=NCCO1)c1cccs1 (stereo unspecified) | > 100 | 35.9 | > 100 | > 100 | > 100 | 76.8 | > 100 | 31 | > 100 | 31.5 | > 100 | > 100 | 66.5 | 37.9 | 53.9 | > 100 | > 100 | > 100 | – | –
CC(C)(O)/C=C\P(C)(=O)c1ccccc1 (stereo unspecified) | > 100 | > 100 | > 100 | > 100 | > 100 | > 100 | > 100 | > 100 | > 100 | > 100 | > 100 | > 100 | > 100 | > 100 | > 100 | > 100 | > 100 | > 100 | > 100 | –
COc1cc(CNc2nc3ccccc3n2Cc2ccccc2)cc(CN2CCOCC2)c1O | – | 40.1 | > 100 | > 100 | > 100 | 34 | > 100 | 41.6 | > 100 | 85.1 | 87.8 | > 100 | 65.2 | 39.9 | 34.6 | 83.9 | > 100 | > 100 | 47.7 | –
CS(=O)(=O)N1CC(CCl)c2ccc(NCCN)cc21 (stereo unspecified) | – | > 100 | > 100 | 87.9 | > 100 | > 100 | > 100 | – | > 100 | > 100 | > 100 | > 100 | 32.1 | > 100 | > 100 | 40.1 | > 100 | > 100 | > 100 | –
COC(=O)CCCC(=O)NC1=C(Nc2ccccc2)C(=O)c2ccccc2C1=O | > 100 | 35.7 | 29.4 | 53.4 | 33.7 | 12.9 | 59.7 | 33 | 62.2 | 29.5 | 30.7 | 64.8 | – | 26.4 | 30.3 | 33.8 | 52.4 | 36.8 | – | –
COc1cc2c(cc1O)[C@H](C)C(c1ccccc1OC)O2 (stereo partly specified) | – | 27 | – | > 100 | 4.2 | > 100 | 13.9 | 22.9 | 23.9 | 90 | > 100 | – | – | > 100 | > 100 | 6.48 | 12.2 | > 100 | 93.6 | –
COc1ccc([C@@H]2CC(=O)NCCCNCCCCNCCCN2)cc1 | > 100 | > 100 | – | > 100 | > 100 | > 100 | > 100 | > 100 | > 100 | > 100 | > 100 | – | > 100 | > 100 | > 100 | > 100 | > 100 | > 100 | > 100 | –
COC(=O)/C(=N\N)C(C(=O)C(=O)Nc1cccc([N+](=O)[O-])c1)c1nc2ccc(C(=O)c3ccccc3)cc2[nH]c1=O (stereo unspecified) | – | > 100 | > 100 | > 100 | > 100 | – | – | > 100 | > 100 | > 100 | > 100 | – | > 100 | > 100 | > 100 | > 100 | > 100 | > 100 | > 100 | > 100
CC(C)c1cccc(C(C)C)c1NC(=O)C(=O)CC(=O)CC(c1ccccc1)c1c(O)c2ccccc2oc1=O (stereo unspecified) | > 100 | > 100 | – | > 100 | > 100 | > 100 | > 100 | > 100 | > 100 | > 100 | > 100 | – | > 100 | > 100 | > 100 | – | > 100 | > 100 | > 100 | –
CN(C)/N=C1\C=C2CC[C@H](O[Si](C)(C)C(C)(C)C)[C@@]2(C)CC1 | 40.9 | 32.1 | 33.2 | 68.2 | 31.9 | 30.8 | 22 | 30 | 30.1 | 30.6 | 32.5 | 29.6 | 32.6 | 30.6 | 29.5 | 30.9 | 31.9 | 34.8 | 28 | –
Nc1ccc(C(=O)NN2C(=O)C(Cl)C2c2cc(Br)cc(Br)c2O)cc1 (stereo unspecified) | > 100 | > 100 | – | > 100 | > 100 | 97.9 | > 100 | > 100 | 61.9 | > 100 | > 100 | – | > 100 | 85.9 | > 100 | > 100 | > 100 | 91.1 | 79.8 | –
Cc1ccc(/C=C/C(=O)C(C)C)cc1 | 98.4 | > 100 | – | > 100 | > 100 | – | 72.7 | > 100 | > 100 | > 100 | 53.7 | – | – | > 100 | > 100 | > 100 | > 100 | > 100 | > 100 | –
Cc1cc(Cl)ccc1NC(=O)C(=O)Cc1ccc([N+](=O)[O-])c([N+](=O)[O-])c1CC(=O)C(=O)Nc1ccc(Cl)cc1C | > 100 | > 100 | – | > 100 | > 100 | > 100 | > 100 | > 100 | > 100 | > 100 | > 100 | – | > 100 | > 100 | > 100 | > 100 | > 100 | > 100 | > 100 | –
CN(C)CCn1c(=O)oc2cc(C(=O)CN3CCOCC3)ccc21 | > 100 | > 100 | > 100 | > 100 | > 100 | > 100 | > 100 | > 100 | > 100 | – | > 100 | – | > 100 | > 100 | > 100 | > 100 | > 100 | – | > 100 | > 100
O=C1CCc2nc3ncccc3cc2C1 | – | > 100 | – | > 100 | > 100 | > 100 | > 100 | > 100 | > 100 | > 100 | > 100 | > 100 | > 100 | > 100 | > 100 | > 100 | > 100 | > 100 | > 100 | > 100
O=[N+]([O-])c1cc2c(cc1O)[nH]c1cccc([N+](=O)[O-])c12 | > 100 | > 100 | – | – | > 100 | > 100 | > 100 | > 100 | > 100 | > 100 | > 100 | – | > 100 | > 100 | > 100 | > 100 | > 100 | > 100 | – | –
CC(C)(C)OC(=O)NNC(=O)C1Cc2ccccc2OC1=O (stereo unspecified) | > 100 | – | > 100 | > 100 | > 100 | > 100 | > 100 | > 100 | > 100 | > 100 | > 100 | – | > 100 | > 100 | > 100 | – | > 100 | > 100 | > 100 | > 100
COc1cc2c(cc1OC)C(=O)Cc1ccc3c(c1CNCC2)OCO3 | – | > 100 | – | > 100 | > 100 | > 100 | > 100 | > 100 | > 100 | > 100 | > 100 | – | > 100 | > 100 | > 100 | > 100 | > 100 | > 100 | – | –
COc1cc(C(C#N)NNC(=O)Cc2ccccc2)cc(OC)c1OC (stereo unspecified) | > 100 | > 100 | – | > 100 | > 100 | > 100 | > 100 | > 100 | > 100 | – | > 100 | – | > 100 | > 100 | > 100 | > 100 | > 100 | > 100 | > 100 | –
CC(C)[C@H]1CO[C@@H]2O[C@H](C)CC(=O)N21 | > 100 | > 100 | – | > 100 | > 100 | > 100 | > 100 | > 100 | > 100 | – | – | – | > 100 | > 100 | > 100 | > 100 | > 100 | > 100 | > 100 | –
